Drawing on PubChem BioAssay (NCI), this text covers TGI and GI50 for 28 molecules.

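Where inhibition never reached the appropriate level, the endpoint shown equals the highest concentration tested. Otherwise, values were interpolated linearly from a five-concentration, 48-hour dose response in 96-well plates. At the GI50, growth is halved. TGI: total growth inhibition.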 A value given as a limit tells only on which side of the number the result lay.

Common to all, as to assay: growth of human tumour cells (NCI), 48 h
The test system of test [1] is HOP-92 NSCLC.
Test [2] relates to IGROV1 ovarian.
In test [3] the test system is LOX IMVI melanoma.
Test [4] concerns OVCAR-8 ovarian.
Test [5] deals with RPMI-8226 leukemia.
For test [6], the system named is RXF 393 renal.
For test [7], the system named is SNB-19 CNS.
Test [8] concerns UACC-62 melanoma.
Test [9] has as its system A498 renal.
The subject of test [10] is DU-145 prostate.

As to `Cc1ccc(SCC(O)=C2C(=O)CCCC2=O)cc1`, the TGI in test [1], in test [2], in [3], in test [4], in test [5] and in test [6] was > 100 µM each time. Also, the TGI in test [7] and in [8] was > 100 µM each time.
As to `O=C(Nc1ccccc1C(=O)Nc1nccs1)c1ccccc1`, the TGI in [9], in [10], in test [2], in [3], in test [4] and in test [5] was > 100 µM each time. Further, the TGI in test [7] and in test [8] was > 100 µM throughout.
`CCC1CCC2c3c([nH]c4ccccc34)C3C(=O)N(c4ccc(OC)cc4)C(=O)C3C2C1` (stereo not given): the TGI was > 100 µM in test [10]; > 100 µM in test [2]; > 100 µM in test [4]; > 100 µM in [5]; > 100 µM in test [6]; 74.9 µM in test [7]. For the same molecule, the TGI in test [8] was > 100 µM.
On to `COc1cc(C(=O)C/C(CCC(=O)Nc2ccc(Cl)cc2Cl)=N/Nc2nnc(C)n2N)ccc1O`, for which the TGI in test [9], in test [1], in test [2], in test [3], in test [4] and in [5] was > 100 µM throughout. In addition, the TGI in test [6], in test [7] and in [8] was > 100 µM throughout.
On to `O=c1cccccc1NCCNc1cccccc1=O`, for which the TGI in [1], in test [2], in test [3], in test [4], in test [5] and in test [6] was > 100 µM throughout. Also, the TGI in [7] and in [8] was > 100 µM throughout.
Take `CCCCN(CCCC)C(=O)C(=O)CC(=O)/C=C/c1ccccc1`: the TGI in [9], in test [1], in test [2], in [3], in [4] and in [5] was > 100 µM each time. The TGI in test [6], in [7] and in test [8] was > 100 µM throughout.
For `N[C@H](C(=O)O)[C@@H](Cl)CC(=O)O`, the TGI in test [9], in test [1], in test [2], in test [3], in [4] and in test [5] was > 100 µM each time. Further, the TGI in test [6], in test [7] and in [8] was > 100 µM throughout.
In the case of `CC(=O)NS(=O)(=O)c1ccc(-n2nc(-c3ccccc3)cc2C2=CC(=O)C=CC2=O)cc1`, the GI50 in [1], in test [2], in [3], in test [4], in [6] and in [7] was > 100 µM throughout. Besides, in test [8], the GI50 is > 100 µM. Moreover, the TGI in test [1], in test [2], in test [3], in test [4], in test [6] and in [7] was > 100 µM each time. Also, in [8], the TGI was > 100 µM.
`COC(=O)/C(=N/O)C(C(=O)OC)C(=O)C(=O)Nc1c(Cl)cc(C)cc1S(=O)(=O)O` (stereo not given): the TGI was > 100 µM in test [9]; > 100 µM in [1]; > 100 µM in test [2]; > 100 µM in [3]; > 100 µM in test [4]; 53.3 µM in test [5]. The TGI in [6], in test [7] and in [8] was > 100 µM each time.
For `COc1cc2c3c(c1OC)Oc1ccc(cc1)CC1c4c(cc(OC)c(OC)c4Oc4ccc(cc4)CC3N(C)CC2)CCN1C` (stereo not given), the TGI is 34 µM in test [9]; > 100 µM in [1]; 67.8 µM in test [2]; 34.9 µM in test [3]; 60 µM in [4]; 70.4 µM in test [5]. Moreover, the TGI in test [6] is 40.3 µM; in test [7], > 100 µM; in [8] it was 34.9 µM.
With `O=C(Nc1ccccc1C(=O)O)C(=O)C(C(=O)c1ccccc1-c1ccccc1)C1OC(=O)c2ccccc21` (stereo not given), the TGI worked out at 35.3 µM in test [9]; 56.3 µM in test [2]; 38.3 µM in [3]; 37.9 µM in test [4]; 98.2 µM in test [5]; 27.2 µM in [6]. Further, the results for the TGI in test [7] and in [8] were 35.2 µM and 35.7 µM, respectively.
In the case of `c1ccc(-c2[nH]c(-c3ccccc3)c(-c3cnccn3)c2-c2cnccn2)cc1`, the TGI in [9], in test [1], in [2], in test [3], in [4] and in test [5] was > 100 µM in each case. In addition, the TGI in [6], in test [7] and in [8] was > 100 µM in each case.
As to `C=C1C[C@@H]2[C@H](CC[C@]3(C)C(=O)CC[C@@H]23)[C@@]2(C)C=CC(=O)C=C12`, the GI50 was > 50.8 µM in [9]; > 65.8 µM in test [10]; > 100 µM in test [1]; 34.4 µM in [2]; 19.2 µM in test [3]; 6.93 µM in [4]. The GI50 in test [5] was 19.7 µM; in test [7] it was > 58.8 µM; in test [8], 8.11 µM. Also, the TGI was > 90.3 µM in test [9]; > 100 µM in [10]; > 100 µM in test [1]; > 100 µM in test [2]; 45.5 µM in [3]; > 24 µM in [4]. In addition, the TGI in test [5] is > 56.6 µM; in test [7] it was > 100 µM; in test [8], 30 µM.
As for `O=C1C(=Cc2ccccc2[N+](=O)[O-])N=C(c2ccccc2)N1n1c(-c2ccccc2)nc2ccccc2c1=O`, the TGI in [10] is > 100 µM; in test [1], 49.3 µM; in test [2] it was > 100 µM; in test [3] it was 68.5 µM; in [4], 78.7 µM; in test [5] it was 66.6 µM. Also, the TGI was 56.2 µM in test [6], > 100 µM in [7] and 46.6 µM in test [8].
In the case of `CCN(CC)CCOc1nc2cc(OC)c(OC)cc2c2c1-c1ccc(OC)cc1C2=O`, the GI50 is 5.56 µM in test [10]; 15.7 µM in [1]; 5.65 µM in test [2]; 1.27 µM in test [3]; 8.62 µM in [4]; 3.26 µM in [5]. The GI50 was 12.8 µM in test [6], 10.5 µM in [7] and 15.5 µM in test [8]. Also, the TGI in test [10] was found to be 18.3 µM; in test [1], 32.1 µM; in test [2], 20.6 µM; in test [3] it was 2.7 µM; in [4] it was 21.4 µM; in [5], 19.6 µM. For the same molecule, the TGI in test [6] was 25.9 µM; in test [7] it was 23.7 µM; in [8], 36.3 µM.
`COc1cccc2c1[C@]1(O)C(O)CCCC21` (stereo not given in full): the TGI in test [9], in test [2], in test [3], in test [4], in test [5] and in test [6] was > 100 µM in each case. Also, the TGI in [7] and in test [8] was > 100 µM in each case.
For `N=C1C(c2nc(-c3ccc(Br)cc3)cs2)=C(O)CN1CC1CCCO1` (stereo not given), the GI50 in test [9], in [1], in [5], in test [6], in test [7] and in test [8] was > 100 µM throughout. Further, the TGI in test [9], in test [1], in test [5], in [6], in [7] and in test [8] was > 100 µM each time.
In the case of `CCOC(=O)NC(=O)c1cn(C2OC(CO)C(O)C2O)c(=O)[nH]c1=O` (stereo not given), the TGI in test [9], in test [2], in [3], in test [4], in test [5] and in test [6] was > 100 µM throughout. In addition, the TGI in test [7] and in test [8] was > 100 µM in each case.
As to `CC1=NN(C(=O)c2cc(Cl)cc([N+](=O)[O-])c2)C(=O)C1N=Nc1ccccc1C(=O)O` (stereo not given), the TGI in test [9], in [2], in [4], in [5], in test [6] and in [7] was > 100 µM in each case. In [8], the TGI was > 100 µM.
Consider `CC1(C)CC(=O)C(=CN2C(=O)CNC2=S)C(=O)C1`, for which the TGI in test [10], in test [1], in [2], in test [4], in test [6] and in test [7] was > 100 µM throughout. For the same molecule, in test [8], the TGI is > 100 µM.
In the case of `Cc1ccc([N+](=O)[O-])cc1NC(=O)C(=O)C1CCC2=C(Sc3ccccc3N2)C1=O` (stereo not given), the TGI in test [10], in [1], in test [2], in test [3], in [4] and in test [6] was > 100 µM throughout. In addition, the TGI in test [7] and in test [8] was > 100 µM each time.
As to `O=C(O)c1oc2cccc3c2c1CCC3`, the TGI in test [9], in test [1], in [2], in test [3], in [4] and in test [5] was > 100 µM in each case. Moreover, the TGI in [6], in test [7] and in test [8] was > 100 µM each time.
Regarding `C=Cc1cnc([N+](=O)[O-])n1C`, the TGI in test [9] is 98.7 µM; in [10], > 100 µM; in [1] it was > 100 µM; in [3], > 100 µM; in test [4] it was > 100 µM; in [5] it was > 100 µM. Also, the TGI in test [7] was > 100 µM.
`Cc1cccc(O)c(=O)c1`: the TGI in test [9] is > 100 µM; in test [1], > 100 µM; in test [2] it was > 100 µM; in test [3], > 100 µM; in test [4], > 100 µM; in [5] it was 92.6 µM. Moreover, the TGI in [6], in test [7] and in test [8] was > 100 µM in each case.
`O=C(/C=C/c1ccccc1)CCc1c(O)c2ccccc2oc1=O`: the TGI in [9], in [10], in test [1], in test [2], in test [3] and in test [4] was > 100 µM throughout. Also, the TGI in test [5], in test [7] and in [8] was > 100 µM throughout.
For the molecule `[N-]=[N+]=Nc1c(Br)c(=O)[nH]c(=O)n1COCCO`, the TGI in [1], in test [2], in [3], in test [4], in test [6] and in test [7] was > 100 µM in each case. The TGI in [8] was > 100 µM.
For the molecule `O=C1OC(c2ccccc2)=N/C1=C/N1CCCC1C(=O)O` (stereo not given), the TGI in [9], in [1], in [2], in test [3], in test [4] and in test [5] was > 100 µM each time. Further, the TGI in test [6], in test [7] and in [8] was > 100 µM each time.
In the case of `c1ccc(COc2cccc3cccnc23)cc1`, the TGI in test [1], in [2], in [3], in test [4], in test [5] and in test [6] was > 100 µM in each case. In addition, the TGI in test [7] and in test [8] was > 100 µM in each case.
